{"source": "patent US5622983A", "about": "“N-substituted cycloalkyl and polycycloalkyl α-substituted Trp-Phe- and phenethylamine derivatives” (Warner-Lambert Company, priority 1995, dated 1997)", "key": {"[1]": {"assay": "Flexor response in stimulated spinalized decerebrated rat preparation"}, "LoVo (xenograft)": {"tested_on": "LoVo (xenograft)", "assay": "LoVo xenograft growth in nude mice", "format": "in vivo", "description": "One×10^6 LoVo cells in 0.1 mL serum-free RPMI were injected subcutaneously into the backs of 27 male nude mice. Xenografts were grown for 10 days prior to treatment, then randomly allocated to receive twice daily gavage with either 0.1 mL saline alone or containing 10 mg/kg/day of compound 20 for 20 days. Bidirectional tumor diameter was measured using vernier calipers and converted to volumes […]. The animals were sacrificed on Day 30. The protocol was approved by the UNSW Ethics committee."}, "[2]": {"assay": "Aspirin-induced gastric damage", "format": "in vivo, rat", "conditions": "10 mg/kg PO", "description": "Aspirin-induced gastric damage was assessed in groups of 10 rats each.\nAll animals were fasted for 24 hours before and throughout the experiment. Drug or vehicle was given 10 minutes before an oral dose of 1 mL of a 45-mg/mL suspension of aspirin in 0.5% carboxymethylcellulose (CMC).\nThe animals were sacrificed five hours after aspirin administration and the stomachs removed and opened for examination."}, "[3]": {"assay": "Rat Social Interaction Test", "format": "in vivo", "conditions": "0,001 to 1.0 mg/kg s.c., paired rats", "text": "(Costall, B., University of Bradford)"}, "[4]": {"tested_on": "pentagastrin stimulated gastric acid secretion", "assay": "Pentagastrin stimulated gastric acid secretion (Ghosh and Schild perfused stomach)", "format": "in vivo, rat", "conditions": "1 nmole/kg pentagastrin", "description": "They were anesthetized with urethane (1.5 g/kg IP) and the trachea cannulated to aid spontaneous respiration. The stomach was perfused continuously using a modification of the original method of Ghosh & Schild in \"Continuous recording of acid secretion in the rat\", Br. J. Pharmac. […] The fluid was propelled by a roller pump (Gilson, Minipuls 2), through heating coils to bring its temperature to 37°±1° C. The perfusion fluid was collected by the fundic collecting funnel and passed to a pH electrode connected to a Jenway pH meter (PHM6). An output was taken from the pH meter to a Rikadenki chart recorder for the on-line recording of the pH of the gastric perfusate.\nPentagastrin was stored as a frozen aliquot and diluted to the required concentrations with sterile 0.9% w/v NaCl. Novel compounds were dissolved in sterile 0.9% w/v NaCl on the day of the experiment. Drugs were administered IV through a cannulated jugular vein as a bolus in a dose volume of 1 mL/kg washed in with 0.15 mL 0.9% w/v NaCl. Basal pH was allowed to stabilize before administration of compounds was begun."}, "[5]": {"assay": "Withdrawal from long-term drug or alcohol treatment, mouse light/dark box test", "format": "in vivo", "description": "The effect of the compounds of the instant invention is illustrated, for example, in the mouse \"light/dark box\" test in FIGS. 5-12.\nIn FIG. 5, five animals were given nicotine, 0.1 mg/kg i.p.b.d. for 14 days. After a 24-hour withdrawal period, compound (20) was given at 1.0 mg/kg i.p.b.d.\nFIG. 6 illustrates the effect of long-term treatment and withdrawal from nicotine using compound (20A). Five mice were given nicotine at 0.1 mg/kg i.p.b.d. for 14 days. After a withdrawal period of 24 hours, compound (20A) was given at 10 mg/kg i.p.b.d.\nFIG. 7 illustrates the effect of long-term treatment and withdrawal from diazepam with intervention with compound (20). Five mice were given diazepam, at 10 mg/kg i.p.b.d. for seven days. Withdrawal was for a 24-hour period; compound 20 was given at 1.0 mg/kg i.p.b.d.\nFIG. 8 illustrates the effect of compound (20A) on the long-term treatment and withdrawal from diazepam. Five mice were given diazepam at 10 mg/kg i.p.b.d. for seven days. After a withdrawal period of 24 hours, compound (20A) was given at 10 mg/kg i.p.b.d.\nFIG. 9 illustrates the effect compound (20A) on the long-term treatment and withdrawal from alcohol. Five mice were given alcohol in drinking water 8% w/v for 14 days. After a withdrawal period of 24 hours, compound (20) was given at 1.0 mg/kg i.p.b.d.\nFive mice were given alcohol in drinking water, 8% w/v for 14 days. After a withdrawal period of 24 hours, compound (20A) was given at 10 mg/kg i.p.b.d.\nFIG. 11 illustrates the effectiveness in the long-term treatment and withdrawal from cocaine. Five mice were given cocaine as 1.0 mg/kg i.p.b.d. for 14 days.\nFive mice were given cocaine at 1.0 mg/kg i.p.b.d. for 14 days after a withdrawal period of 24 hours, compound (20a) was given at 1.0 mg/kg i.p.b.d."}, "Rat Elevated X-Maze Test": {"assay": "Rat Elevated X-Maze Test", "format": "in vivo", "conditions": "0.01 to 1.0 mg/kg s.c.", "description": "The dose was equivalent to 0.1 mg/kg p.o. compound 20."}, "LoVo cells": {"tested_on": "LoVo cells", "assay": "In vitro proliferation of LoVo cells (tetrazolium salt colorimetric assay)", "format": "cell-based, human", "description": "LoVo was obtained from the American Tissue Type Collection (ATCC CCL 229). Five×10^3 to 1×10^4 LoVo cells were cultured in 200 μL of serum containing RPMI in 96-well flat-bottomed titre plates for 24 hours. […] Cell proliferation was measured indirectly using a tetrazolium salt colorimetric assay for cellular respiration (Merlin JL, Azzi S, Lignon D, Ramacci C, Zeghari N, Guillemin F. MTT assays allow quick and reliable measurement of the response of human tumor cell to photodynamic therapy. Eur. J. Cancer, 28(8/9):1452-1458 (1992))."}}}
{"smiles": "CC(Cc1c[nH]c2ccccc12)(NC(=O)OC1C2CC3CC(C2)CC1C3)C(=O)NCC(NC(=O)CCC(=O)O)c1ccccc1", "note": "(stereo not drawn) [Example 20, [R-(R*,R*)-4-[[2-[[3-(1H-indol-3-yl)-2-methyl-1-oxo-2-[[(tricyclo[3.3.1.1^3,7]dec-2-yloxy)carbonyl]amino]propyl]amino]-1-phenylethyl]amino]-4-oxobutanoic acid]", "values": [{"measurement": "flexor response (FIG. 16)", "setting": "[1]; compound alone, similar to morphine", "result": "depresses the flexor response"}, {"measurement": "duration of the potentiated effect", "setting": "[1]; given with morphine", "result": 3, "unit": "h"}, {"measurement": "effect on flexor response when given with morphine (FIG. 16)", "setting": "[1]; given with morphine", "result": "greatly potentiates the effect"}, {"measurement": "reduction of tumor volume at Day 30 compared to control", "setting": "LoVo (xenograft); 10 mg/kg/day by gavage for 20 days", "result": 53, "unit": "%"}, {"measurement": "tumor growth overall, mean tumor volume (FIG. 17)", "setting": "LoVo (xenograft); 10 mg/kg/day orally, 20 days, p <0.05, ANOVA", "result": "significantly inhibited tumor growth overall"}, {"measurement": "day from which tumor size diverged significantly between control and treated animals", "setting": "LoVo (xenograft); 10 mg/kg/day, p <0.05, ANOVA", "result": 21, "unit": "days"}, {"measurement": "reduction in ulcer formation", "setting": "[2]", "result": 48, "unit": "%"}, {"measurement": "ulcer score", "setting": "[2]; ±SD, saline control 12.1±6.85", "result": "6.3±4.14"}, {"measurement": "time spent in social interaction compared with control (FIG. 13)", "setting": "[3]", "result": "increase in time spent in social interaction"}, {"measurement": "reversibility of the antagonism", "setting": "[4]", "result": "reversible with full recovery of the response to pentagastrin"}, {"measurement": "effect on stimulation of gastric acid secretion produced by pentagastrin", "setting": "[4]; compound IV, anesthetized rat", "result": "antagonized"}, {"measurement": "time spent in the light section after withdrawal from alcohol (FIG. 9)", "setting": "[5]; alcohol 8% w/v in drinking water 14 days, 24-hour withdrawal, compound 1.0 mg/kg i.p.b.d.", "result": "demonstrates the effectiveness of the compound"}, {"measurement": "time in the light section after withdrawal from cocaine (FIG. 11)", "setting": "[5]; cocaine 1.0 mg/kg i.p.b.d. 14 days", "result": "increased time in the light section"}, {"measurement": "time spent in the light section after withdrawal from diazepam (FIG. 7)", "setting": "[5]; diazepam 10 mg/kg i.p.b.d. seven days, 24-hour withdrawal, compound 1.0 mg/kg i.p.b.d.", "result": "increased time spent in the light section"}, {"measurement": "time spent in the light area after withdrawal from nicotine (FIG. 5)", "setting": "[5]; nicotine 0.1 mg/kg i.p.b.d. 14 days, 24-hour withdrawal, compound 1.0 mg/kg i.p.b.d.", "result": "increased time spent in the light area"}, {"measurement": "anxiolytic effect, time spent in the open arm end section (FIG. 14)", "setting": "Rat Elevated X-Maze Test", "result": "anxiolytic effects"}, {"measurement": "cellular proliferation expressed as a percentage of control", "setting": "LoVo cells; 10^-1 M, 24 hours", "result": "58.93±7.30", "unit": "%"}, {"measurement": "cellular proliferation expressed as a percentage of control", "setting": "LoVo cells; 10^-1 M, 48 hours", "result": "82.60±2.33", "unit": "%"}, {"measurement": "cellular proliferation expressed as a percentage of control", "setting": "LoVo cells; 10^-1 M, 72 hours", "result": "80.53±3.06", "unit": "%"}, {"measurement": "cellular proliferation expressed as a percentage of control", "setting": "LoVo cells; 10^-7 M, 24 hours", "result": "81.60±6.62", "unit": "%"}, {"measurement": "cellular proliferation expressed as a percentage of control", "setting": "LoVo cells; 10^-7 M, 48 hours", "result": "95.33±2.50", "unit": "%"}, {"measurement": "cellular proliferation expressed as a percentage of control", "setting": "LoVo cells; 10^-7 M, 72 hours", "result": "84.71±6.97", "unit": "%"}, {"measurement": "cellular proliferation expressed as a percentage of control", "setting": "LoVo cells; 10^-8 M, 24 hours", "result": "70.13±7.15", "unit": "%"}, {"measurement": "cellular proliferation expressed as a percentage of control", "setting": "LoVo cells; 10^-8 M, 48 hours", "result": "93.20±4.04", "unit": "%"}, {"measurement": "cellular proliferation expressed as a percentage of control", "setting": "LoVo cells; 10^-8 M, 72 hours", "result": "85.93±4.19", "unit": "%"}, {"measurement": "cellular proliferation expressed as a percentage of control", "setting": "LoVo cells; 10^-9 M, 24 hours", "result": "62.47±7.20", "unit": "%"}, {"measurement": "cellular proliferation expressed as a percentage of control", "setting": "LoVo cells; 10^-9 M, 48 hours", "result": "82.73±2.97", "unit": "%"}, {"measurement": "cellular proliferation expressed as a percentage of control", "setting": "LoVo cells; 10^-9 M, 72 hours", "result": "79.07±3.18", "unit": "%"}, {"measurement": "cellular proliferation expressed as a percentage of control", "setting": "LoVo cells; 10^-11 M, 24 hours, LoVo, serum-free RPMI", "result": "66.47±6.72", "unit": "%"}, {"measurement": "cellular proliferation expressed as a percentage of control", "setting": "LoVo cells; 10^-11 M, 48 hours", "result": "80.47±2.64", "unit": "%"}, {"measurement": "cellular proliferation expressed as a percentage of control", "setting": "LoVo cells; 10^-11 M, 72 hours", "result": "78.87±3.25", "unit": "%"}, {"measurement": "concentrations with significant inhibition", "setting": "LoVo cells; after 24 and 72 hours (ANOVA)", "result": "10^-11 to 10^-8 M"}, {"measurement": "concentrations with significant inhibition", "setting": "LoVo cells; at 48 hours (ANOVA)", "result": "10^-11 to 10^-9 M"}, {"measurement": "time of maximum inhibition", "setting": "LoVo cells; cultures not refed with compound", "result": 24, "unit": "h"}]}
